According to US5432194A, “(4-alkoxypyran-4-yl) substituted arylalkylaryl-, aryalkenylaryl-, and aryalkynylarylurea inhibitors of 5-lipoxygenase” (Abbott Laboratories, priority 1994, dated 1995):
Structures can show the parent of a compound that is named as a salt.

Molecular target: T1, 5-Lipoxygenase (Homo sapiens, UniProt P09917)
T1 construct: from tissue; host or cells: human heparinized whole blood
T1 sequence (P09917 1-674): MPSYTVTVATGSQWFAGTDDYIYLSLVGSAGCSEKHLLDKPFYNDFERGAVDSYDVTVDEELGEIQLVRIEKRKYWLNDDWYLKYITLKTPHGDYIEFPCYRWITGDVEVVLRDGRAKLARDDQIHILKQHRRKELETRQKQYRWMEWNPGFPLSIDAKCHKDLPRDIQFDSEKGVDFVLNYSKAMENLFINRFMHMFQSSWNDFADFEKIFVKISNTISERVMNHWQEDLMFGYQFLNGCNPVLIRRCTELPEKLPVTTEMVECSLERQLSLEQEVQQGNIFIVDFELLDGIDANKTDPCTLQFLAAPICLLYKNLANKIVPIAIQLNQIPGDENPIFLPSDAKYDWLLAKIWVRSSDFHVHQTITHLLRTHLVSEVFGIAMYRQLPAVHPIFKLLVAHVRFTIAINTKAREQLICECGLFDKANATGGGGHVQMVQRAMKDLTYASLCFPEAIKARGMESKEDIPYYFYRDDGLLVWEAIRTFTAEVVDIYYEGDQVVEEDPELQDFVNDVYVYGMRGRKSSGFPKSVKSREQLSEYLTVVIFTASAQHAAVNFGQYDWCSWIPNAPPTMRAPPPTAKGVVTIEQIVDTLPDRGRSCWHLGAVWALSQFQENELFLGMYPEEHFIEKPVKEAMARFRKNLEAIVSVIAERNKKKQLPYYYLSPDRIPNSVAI
Assay: Inhibition of calcium ionophore-induced LTB4 biosynthesis in human whole blood (5-lipoxygenase)
Format: cell-based
Conditions: for IC50: calcium ionophore A23187 8.3 μM, 15 min preincubation, 37° C., read-out: IC50 against 5-lipoxygenase from stimulated LTB4 formation in human whole blood; for inhibition at 0.1 µM: @ 0.10 μM
Procedure: Inhibition of leukotriene biosynthesis was evaluated in an assay, involving calcium ionophore-induced LTB4 biosynthesis expressed human whole blood. Human heparinized whole blood was preincubated with test compounds or vehicle for 15 min at 37° C. followed by calcium ionophore A23187 challenge (final concentration of 8.3 μM) and the reaction terminated after 30 min by adding two volumes of methanol containing prostaglandin B2 as an internal recovery standard. The methanol extract was analyzed for LTB4 using a commercially available radioimmunoassay.

[1] = A23187, read-out: Inhibition of stimulated LTB4 formation in human whole blood

Row | SMILES | IC50 [nM] | also measured
1 | COC1(c2cc(F)cc(OCc3ccc(N(C)C(=O)N(C)C)cc3)c2)CCOCC1 [Example 1, 4-{3-[4-((N',N'-dimethylaminocarbonyl)-N-methylamino)benzyloxy]-5-fluorophenyl}-4-methoxytetrahydropyran] | 17 | 
2 | COC1(c2cccc(Sc3ccc(N(C)C(=O)N(C)C)cc3)c2)CCOCC1 [Example 8, 4-{3-[4-((N',N'-dimethylaminocarbonyl)-N-methylamino)phenylthio]phenyl}-4-methoxytetrahydropyran] |  | inhibition at 0.025 µM (@ 0.025 μM, A23187, read-out: Inhibition of stimulated LTB4 formation in human whole blood): 45%
3 | COC1(c2cccc([S+]([O-])c3ccc(N(C)C(=O)N(C)C)cc3)c2)CCOCC1 (stereo not shown) [Example 9, 4-{3-[4-((N',N'-dimethylaminocarbonyl)-N-methylamino)phenylsulfinyl]phenyl}-4-methoxytetrahydropyran] |  | inhibition at 0.1 µM [1]: 25%
4 | COC1(c2cc(F)cc(OCc3ccc(CNC(=O)N(C)C)cc3)c2)CCOCC1 [Example 11, 4-{3-[4-((N',N'-dimethylaminocarbonyl)aminomethyl)benzyloxy]-5-fluorophenyl}-4-methoxytetrahydropyran] | 1800 | 
5 | COC1(c2cc(F)cc(OCc3ccc(CN4CCNC4=O)cc3)c2)CCOCC1 [Example 17, 4-{3-[4-(imidazolidin-2-on-1-ylmethyl)benzyloxy]-5-fluorophenyl}-4-methoxytetrahydropyran] |  | inhibition at 200 µM (@ 200 μM, A23187, read-out: Inhibition of stimulated LTB4 formation in human whole blood): 13%
6 | CNC(=O)N(C)c1ccc(Sc2cccc(C3(OC)CCOCC3)c2)cc1 [Example 28, 4-{3-[4-((N"-methylaminocarbonyl)-N-methylamino)phenylthio]phenyl}-4-methoxytetrahydropyran] |  | inhibition at 0.78 µM (@ 0.78 μM, A23187, read-out: Inhibition of stimulated LTB4 formation in human whole blood): 100%
7 | COC1(c2cccc(Sc3ccc(N(C)C(=O)N4CCOCC4)cc3)c2)CCOCC1 [Example 29, 4-{3-[4-((4-morpholinocarbonyl)-N-methylamino)phenylthio]phenyl}-4-methoxytetrahydropyran] |  | inhibition at 0.1 µM [1]: 94%
8 | COC1(c2cccc(Sc3ccc(N(C)C(=O)N4CCN(C)CC4)cc3)c2)CCOCC1 [Example 31, 4-{3-[4-(((4-methylpiperazinyl)carbonyl)-N-methylamino)phenylthio]phenyl}-4-methoxytetrahydropyran] | 70 | 
9 | COC1(c2cccc(Sc3ccc(N(C)C(=O)N4CCN(C)CC4)cc3)c2)CCOCC1 [Example 33, 4-{3-[4-(((4-methylpiperazinyl)carbonyl)-N-methylamino)phenylthio]phenyl}-4-methoxytetrahydropyran hydrochloride salt] | 80 | 
10 | C=CCN(C)C(=O)N(C)c1ccc(Sc2cccc(C3(OC)CCOCC3)c2)cc1 [Example 35, 4-{3-[4-(((N'-allyl-N'-methylamino)carbonyl)-N-methylamino)phenyl-thio]phenyl}-4-methoxytetrahydropyran] | 30 | 
